This passage reports LD50 results from US4874751A, “Antibacterial treatment” (priority 1985, dated 1989).

Molecules are shown by their SMILES.

In the case of `Cc1cn([C@H]2C[C@H](N=[N+]=[N-])[C@@H](CO)O2)c(=O)[nH]c1=O`, the LD50 result in “LD50 in mice” and in “LD50 in rats” was “greater than 750 mg/kg” throughout.
